Data: US7205298B2, “Substituted triazine kinase inhibitors” (Janssen Pharmaceutica N.V., priority 2002, dated 2007)

Columns and labels:
PKC γ = biological target: T1, PKC γ (Homo sapiens, UniProt P05129); test: Kinase selectivity assay PKC γ; assay type: biochemical
T1 construct: purchased BIOMOL SE-143; host or cells: insect cells
Procedure: (§1) Assays to test compound inhibition of other kinases were preformed using methods that measure the amount of phosphorylation of a biotinylated peptide substrate. Biotinylated peptide substrates were selected from the literature as appropriate for the enzyme being evaluated. The general procedure used to assay for kinase activity is as follows: a kinase reaction mix was prepared in 50 mM Tris-HCl pH=8, 10 mM MgCl2, 0.1 mM Na3VO4, 1 mM DTT, 10 μM ATP, 0.25–1 μM biotinylated peptide substrate, 0.2–0.8 μCuries per well ^33P-γ-ATP (2000–3000 Ci/mmol). Assay conditions vary slightly for each protein kinase, for example, insulin receptor kinase requires 10 mM MnCl2 for activity and Calmodulin-dependent protein kinase requires calmodulin and 2 mM CaCl2. The reaction mixture was dispensed into the wells of a streptavidin coated Flashplate and 1 μL test compound in 100% DMSO was added to a 100 μL reaction volume resulting in a final concentration of 1% DMSO in the reaction. Enzyme was diluted in 50 mM Tris-HCl pH=8.0, 0.1% BSA and added to each well. The reaction was incubated for one hour at 30° C. in the presence of a test compound. […] The plate was read on a scintillation counter to determine ^33P-γ-ATP incorporated into the immobilized peptide substrate. […] A maximum and minimum signal for the assay was determined on each plate. […]

CDK4 = CDK4 (Homo sapiens, UniProt P11802); test: Kinase selectivity assay CDK4; assay type: biochemical
CDK4, sequence (P11802 whole entry, species assumed): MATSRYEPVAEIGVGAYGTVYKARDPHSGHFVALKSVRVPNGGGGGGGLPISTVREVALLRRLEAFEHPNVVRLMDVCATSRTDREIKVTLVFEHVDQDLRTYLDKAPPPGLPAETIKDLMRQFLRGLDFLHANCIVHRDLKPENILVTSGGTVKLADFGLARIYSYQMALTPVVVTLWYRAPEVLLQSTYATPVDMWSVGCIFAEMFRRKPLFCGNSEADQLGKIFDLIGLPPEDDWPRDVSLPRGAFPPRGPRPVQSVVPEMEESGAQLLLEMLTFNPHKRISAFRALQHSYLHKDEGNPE
CDK4, sequence (P24385 whole entry partner, species assumed): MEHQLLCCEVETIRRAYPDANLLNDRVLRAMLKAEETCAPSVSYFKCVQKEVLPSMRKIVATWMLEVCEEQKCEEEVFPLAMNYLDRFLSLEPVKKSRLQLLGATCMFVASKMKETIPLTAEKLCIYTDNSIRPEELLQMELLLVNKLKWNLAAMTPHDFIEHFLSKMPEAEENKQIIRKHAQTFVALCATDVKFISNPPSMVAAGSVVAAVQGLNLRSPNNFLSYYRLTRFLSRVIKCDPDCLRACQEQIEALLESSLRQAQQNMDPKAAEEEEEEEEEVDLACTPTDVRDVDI
Procedure: as §1

[1] = tested on: PC-3 prostate adenocarcinoma; test: Inhibition of cell proliferation, 14C-thymidine incorporation, PC-3; assay type: cell-based; conditions: Homo sapiens
Procedure: The ability of a test compound to inhibit the proliferation of cell growth was determined by measuring incorporation of ^14C-labelled thymidine into newly synthesized DNA within the cells. This method was used on cell lines derived from carcinomas originating from several tissues such as HeLa cervical adenocarcinoma (American Type Culture Collection (ATCC), Virginia, Cat. #CCL-2), HCT-116 colon carcinoma (CCL-247), MDA-MB-231 (Xenogen Corp.), PC-3 prostate adenocarcinoma (ATCC CRL-1435) and A375 malignant melanoma (ATCC CRL-1619).
Using this method, the effect of a compound on cell growth of cells with many different phenotypes can be determined. Cells were trypsinized and counted and 3000–8000 cells were added to each well of a 96-well CytoStar tissue culture treated scintillating microplate (Amersham #RPNQ0160) in complete medium in a volume of 100 μl. Cells were incubated for 24 hours in complete medium at 37° C. in an atmosphere containing 5% CO2. 1 μL of test compound in 100% DMSO was then added to the wells of the plate. DMSO only was added to control wells. Cells were incubated for 24 more hours in complete medium at 37° C. in an atmosphere containing 5% CO2. […] The degree of methyl ^14C-thymidine incorporation was quantified on a Packard Top Count.

IC50 (PKC γ): > 100 µM
IC50 (CDK4): 1350 nM
IC50 [1]: 259 nM
Compound: OCCCNc1cncc(-c2ncnc(Nc3cccc(Cl)c3)n2)c1 [Compound 1, 3-((5-(4-((3-chlorophenyl)amino)-1,3,5-triazin-2-yl)-3-pyridinyl)amino)-1-propanol]
